Reference: patent publication US20260041744A1, “Methods for Treating Pompe Disease” (Amicus Therapeutics, Inc., priority 2022, published 2026)
“Also recorded” adds a separate entry of the source.

Key:
Gaa KO mice [1] = test: Tissue glycogen content in Gaa KO mice (amyloglucosidase digestion); format: in vivo, mouse; conditions: 20 mg/kg ATB200 IV + 10 mg/kg miglustat PO, 6 biweekly administrations
Experimental: The therapeutic effects of ATB200 and miglustat were evaluated and compared against those of Alglucosidase alfa in Gaa KO mice. For the study, male Gaa KO (3-to 4-month old) and age-matched wild-type (WT) mice were used. Alglucosidase alfa was administered via bolus tail vein intravenous (IV) injection. In the co-administration regimen, miglustat was administered via oral gavage (PO) 30 minutes prior to the IV injection of ATB200. Treatment was given biweekly. Treated mice were sacrificed after 14 days from the last administration and various tissues were collected for further analysis. Table 11 summarizes the study design:
Tissue glycogen content in tissues samples was determined using amyloglucosidase digestion, as discussed above.

[2] = tested on: adult subjects with late-onset Pompe disease (LOPD); test: Study ATB200-03: SGIC, PGIC and additional PROs (PROMIS-dyspnea, PROMIS-upper extremity, R-PAct, EQ-5D-5L); format: in vivo, human; conditions: week 52
Excerpt: Additional PROs included PROMIS-dyspnea, PROMIS-upper extremity, R-PACT, EQ-5D-5L, SGIC. The PGIC was also included.
Across all of these domains a greater percentage of patients in the overall population treated with cipaglucosidase alfa/miglustat reported improvement, and a lower percentage reported worsening, compared with patients treated with alglucosidase alfa. […] Results are shown below for the SGIC overall physical well-domain, which is representative of the benefits reported across these measures (FIG. 86).

[3] = tested on: adults with Pompe disease; test: Study ATB200-02: patient-reported outcomes (FSS, R-PAct, RHS); format: in vivo, human
Excerpt: Favorable findings observed through 48 months of treatment in 6MWD and FVC are bolstered by favorable directional trends in several other secondary endpoints for muscle strength, motor function, and respiratory function.
PROs supported the improvements observed for motor function, muscle strength and pulmonary function tests. […] SGIC outcomes for overall physical wellbeing improved in most patients across all cohorts after 48 months of follow up (Table 26C). PGIC results indicated an improvement or stabilization for all cohorts after 48 months of follow up and supported the results of other efficacy outcomes (Table 26C).
One patient reported no change, and one reported an improvement from baseline in SGIC overall physical wellbeing.

[4] = Study ATB200-02: safety (TEAEs); conditions: in vivo
Excerpt: Mean (SD) duration of treatment was 37.2 (14.48), 19.9 (4.13) and 36.9 (12.14) months in cohorts 1 (prior ERT 2-6 years), 4 (prior ERT ≥7 years) and 3 (ERT naive), respectively.
Mean (SD) duration of treatment was 46.3 (22.86) months.

Gaa KO mice [5] = test: Single fiber analysis (LAMP1/LC3 co-immunofluorescence, white gastrocnemius); format: in vivo, mouse; conditions: single fibers
Excerpt: FIG. 17 depicts co-immunofluorescent staining of LAMP1 (green) (see for example, “B”) and LC3 (red) (see, for example, “A”) in single fibers isolated from the white gastrocnemius of Gaa KO mice treated with a vehicle, alglucosidase alfa, or ATB200. “C” depicts clearance of autophagic debris and absence of enlarged lysosome. A minimum of 30 fibers were examined from each animal.
As a result, a significant portion of muscle fibers analyzed (36-60%) from ATB200-treated mice appeared normal or near-normal.

[6] = tested on: adult subjects with late-onset Pompe disease (LOPD); test: Study ATB200-03 (PROPEL): GSGC total score; format: in vivo, human; conditions: for CHG to Week 52 in GSGC total score, LS Mean: MMRM, actual time point of assessments, decrease indicates improvement; for GSGC total score CHG, LS means (SE): Week 52, ANCOVA
Experimental: The test for the primary endpoint was conducted first at the 1-sided 0.025 significance level, and if significant, the ordered key secondary endpoints were similarly tested at the same significance level. […] A nonparametric randomization based ANCOVA was specified as the first sensitivity analysis for 6MWD and FVC. […] For the purposes of data presentation in this document, 2-sided p-values are reported hereafter, except as otherwise noted.

[7] = Ambulatory ERT-experienced, 12 months
[8] = Ambulatory ERT-experienced, 24 months
[9] = Ambulatory ERT-experienced, 36 months
[10] = Ambulatory ERT-experienced, 48 months
[11] = Ambulatory ERT-naïve, 12 months
[12] = Ambulatory ERT-naïve, 24 months
[13] = Ambulatory ERT-naïve, 36 months
[14] = Ambulatory ERT-naïve, 48 months
[15] = Non-ambulatory ERT-experienced, 12 months
[16] = Non-ambulatory ERT-experienced, 24 months
[17] = Non-ambulatory ERT-experienced, 36 months
[18] = Non-ambulatory ERT-experienced, 48 months
[19] = Week 52-LOCF, ERT-experienced Population
[20] = Week 52-LOCF, ERT-naïve Subjects excluding Subject 4005-2511
[21] = Week 52-LOCF, ITT excluding Subject 4005-2511

ATB200/miglustat: two-component therapy: cipaglucosidase alfa (ATB200) administered in conjunction with miglustat (AT2221), a stabilizer of cipaglucosidase alfa
tissue glycogen content vs alglucosidase alfa (Gaa KO mice [1]): significantly decreased the glycogen content in four different tissues (quadriceps, triceps, gastrocnemius, and heart) as compared to the same dosage of alglucosidase alfa
SGIC and PGIC outcome [2]: SGIC and PGIC showed consistently greater improvement favoring cipaglucosidase alfa/miglustat treatment
patient-reported outcomes FSS, R-PAct, RHS ([3]; 48 months, listed as cipaglucosidase alfa/miglustat): meaningful improvements in subject-perceived fatigue, ability to perform daily life activities, and overall physical well-being; also recorded: all ambulatory patients reported stable R-PAct scores and RHS compared with baseline scores; also recorded: improved FSS and stable RHS scores compared with baseline
Fatigue Severity Scale, CFBL mean [3, 7]: −2.9
Rasch-built Pompe-specific Activity, CFBL mean [3, 7]: 1.3
Rotterdam Handicap Scale, CFBL mean [3, 7]: −0.3
Fatigue Severity Scale, CFBL mean [3, 8]: −3.1
Rasch-built Pompe-specific Activity, CFBL mean [3, 8]: 2.2
Rotterdam Handicap Scale, CFBL mean [3, 8]: −1.1
Fatigue Severity Scale, CFBL mean [3, 9]: 1.4
Rasch-built Pompe-specific Activity, CFBL mean [3, 9]: −0.1
Rotterdam Handicap Scale, CFBL mean [3, 9]: −2.3
Fatigue Severity Scale, CFBL mean [3, 10]: −3.4
Rasch-built Pompe-specific Activity, CFBL mean [3, 10]: −0.3
Rotterdam Handicap Scale, CFBL mean [3, 10]: −2.3
Fatigue Severity Scale, CFBL mean [3, 11]: −6.3
Rasch-built Pompe-specific Activity, CFBL mean [3, 11]: 2.0
Rotterdam Handicap Scale, CFBL mean [3, 11]: −0.4
Fatigue Severity Scale, CFBL mean [3, 12]: −5.5
Rasch-built Pompe-specific Activity, CFBL mean [3, 12]: 2.2
Rotterdam Handicap Scale, CFBL mean [3, 12]: −0.4
Fatigue Severity Scale, CFBL mean [3, 13]: −6.2
Rasch-built Pompe-specific Activity, CFBL mean [3, 13]: 1.4
Rotterdam Handicap Scale, CFBL mean [3, 13]: −1.2
Fatigue Severity Scale, CFBL mean [3, 14]: 1.2
Rasch-built Pompe-specific Activity, CFBL mean [3, 14]: −0.6
Rotterdam Handicap Scale, CFBL mean [3, 14]: −1.3
Fatigue Severity Scale, CFBL mean [3, 15]: −9.2
Rasch-built Pompe-specific Activity, CFBL mean [3, 15]: 1.4
Rotterdam Handicap Scale, CFBL mean [3, 15]: 0.6
Fatigue Severity Scale, CFBL mean [3, 16]: −23.0
Rasch-built Pompe-specific Activity, CFBL mean [3, 16]: 0.8
Rotterdam Handicap Scale, CFBL mean [3, 16]: 0.6
Fatigue Severity Scale, CFBL mean [3, 17]: −10.0
Rasch-built Pompe-specific Activity, CFBL mean [3, 17]: 0.8
Rotterdam Handicap Scale, CFBL mean [3, 17]: 0.6
Fatigue Severity Scale, CFBL mean [3, 18]: −12.0
Rasch-built Pompe-specific Activity, CFBL mean [3, 18]: 2.0
Rotterdam Handicap Scale, CFBL mean [3, 18]: −1.5
TEAE profile / tolerability [4]: most TEAEs were mild or moderate in severity and did not lead to study withdrawal

alglucosidase alfa [reference compound]
Fibers with Autophagy Buildup (Gaa KO mice [5]): >90%
Fibers with Normal or Near-normal Appearance (Gaa KO mice [5]): <10%
GSGC Total Score Absolute Value, Median ([6]; Baseline, ITT, ERT-naïve Subjects excluding Subject 4005-2511): 9.00
GSGC Total Score Absolute Value, Mean ([6]; Baseline, ITT, ERT-naïve Subjects excluding Subject 4005-2511, 4 points (normal) to 27 points (worst)): 10.86
mean (SD) change in GSGC total score from baseline to Week 52 ([6]; ERT-experienced Population): 0.6 (1.83)
mean (SD) change in GSGC total score from baseline to Week 52 ([6]; ERT-naïve excluding Subject 4005-2511): 1.3 (1.80)
Change in GSGC total score baseline to Week 52, LS means (SE) from ANCOVA ([6]; ITT-LOCF, ERT-naïve Subjects excluding Subject 4005-2511): 0.91 (1.042)
CHG to Week 52 in GSGC total score, LS Mean ([6]; ITT-OBS excluding Subject 4005-2511 (overall)): 0.8
CHG to Week 52 in GSGC total score, LS Mean ([6]; ITT-OBS excluding Subject 4005-2511, ERT-naïve Subjects): 1.3
CHG to Week 52 in GSGC total score, LS Mean ([6]; ITT-OBS, ERT-experienced Subjects): 0.5
GSGC Total Score Absolute Value, Mean [6, 19]: 15.87
GSGC Total Score Absolute Value, Median [6, 19]: 17.00
GSGC Total Score CHG, Mean [6, 19]: 0.61
GSGC total score CHG, Median [6, 19]: 0.00
GSGC Total Score Absolute Value, Mean [6, 20]: 12.14
GSGC Total Score Absolute Value, Median [6, 20]: 10.00
GSGC Total Score CHG (change from baseline), Mean [6, 20]: 1.29
GSGC Total Score CHG (change from baseline), Median [6, 20]: 1.00
GSGC Total Score Absolute Value, Median [6, 21]: 16.00
GSGC total score Absolute Value, Mean (SD) [6, 21]: 15.00 (4.488)
GSGC total score CHG, Mean (SD) [6, 21]: 0.77 (1.813)
GSGC total score CHG, Median [6, 21]: 0.50
GSGC total score CHG, LS means (SE) ([6]; ITT-LOCF excluding Subject 4005-2511): 0.847 (0.440)
GSGC total score CHG, LS means (SE) ([6]; ITT-LOCF, ERT-experienced Population): 0.65 (0.494)
GSGC outcome ([6]; overall (and ERT-experienced) population, week 52): worsening
mean (SD) change in GSGC total score from baseline to Week 52 ([6]; overall population, negative = improvement, listed as alglucosidase alfa and placebo): 0.77 (1.8)
mean (SD) change in GSGC total score from baseline to Week 52 ([6]; overall population, negative = improvement, listed as alglucosidase alfa/placebo): 0.77 (1.81)
